Here are results for six compounds from publication PMC10952342 (2023).

The subject of assay [1] is HTG4 (DNA, G4) TTGGGTTAGGGTTAGGGTTAGGGA
The experiment in a line: emission titration (580 nm). The note with it: K+ 100 mM, lithium cacodylate pH 7.3.

Assay [2] deals with c-Myc (DNA, G4) TGAGGGTGGGTAGGGTGGGTAA
Description: emission titration (580 nm). The conditions noted are these: K+ 100 mM, lithium cacodylate pH 7.3.

Assay [3] concerns HTelo (DNA, G4) AGGGTTAGGGTTAGGGTTAGGG
The experiment in a line: emission titration (580 nm). The conditions noted are these: lithium cacodylate pH 7.3.

Assay [4] shares this test system. Description: CD melting (295 nm). The note with it: Na+ 100 mM; 10 mM lithium cacodylate; 5 μM DNA, 10 μM compound.
Assay [5] concerns c-Myc (DNA, G4) TGAGGGTGGGTAGGGTGGGTAA
Description: CD melting (265 nm). The conditions noted are these: K+ 1 mM; 10 mM lithium cacodylate; 5 μM DNA, 10 μM compound.

As to `CN(C)CCOc1c[c-]c(-c2cccc(-c3ccccn3)n2)cc1.OCC[S-].[Pt+2]`, the Ka in assay [1] is 22.04 ± 9.23 x 10^5 M^-1; in assay [2] it was 14.43 ± 7.18 x 10^5 M^-1; in assay [3] (K+ 100 mM), 12.5 ± 0.30 x 10^5 M^-1; in assay [3] (Na+ 100 mM) it was 3.5 ± 1.01 x 10^5 M^-1.

`CN(C)CCOc1c[c-]c(-c2cccc(-c3ccccn3)n2)cc1.[Cl-].[Pt+2]`: the Ka in assay [1] was 14.89 ± 4.37 x 10^5 M^-1; in assay [2] it was 17.61 ± 2.87 x 10^5 M^-1; in assay [3] (K+ 100 mM), 10.45 ± 1.13 x 10^5 M^-1; in assay [3] (Na+ 100 mM), 6.22 ± 0.34 x 10^5 M^-1. In addition, the results for the ΔTm in assay [4] and in assay [5] were 3.6 °C and 30 °C, respectively.

For the compound `OCC[S-].[Pt+2].[c-]1cc(OCCN2CCCCC2)ccc1-c1cccc(-c2ccccn2)n1`, the Ka in assay [1] is given as 16.35 ± 2.30 x 10^5 M^-1; in assay [2] it was 15.04 ± 1.18 x 10^5 M^-1; in assay [3] (K+ 100 mM) it was 4.85 ± 0.66 x 10^5 M^-1; in assay [3] (Na+ 100 mM) it was 4.5 ± 1.54 x 10^5 M^-1.

Turning to `OCC[S-].[Pt+2].[c-]1cc(OCCN2CCOCC2)ccc1-c1cccc(-c2ccccn2)n1`, the Ka in assay [1] is given as 4.45 ± 0.58 x 10^5 M^-1; in assay [2], 6.09 ± 0.91 x 10^5 M^-1; in assay [3] (K+ 100 mM) it was 3.92 ± 0.13 x 10^5 M^-1; in assay [3] (Na+ 100 mM), 1.46 ± 0.05 x 10^5 M^-1.

As for `[Cl-].[Pt+2].[c-]1cc(OCCN2CCCCC2)ccc1-c1cccc(-c2ccccn2)n1`, the Ka is recorded as 19.18 ± 3.60 x 10^5 M^-1 in assay [1] (1 μM complex); 21.65 ± 0.64 x 10^5 M^-1 in assay [2] (1 μM complex); 11.77 ± 1.69 x 10^5 M^-1 in assay [3] (K+ 100 mM, 1 μM complex); 5.06 ± 0.59 x 10^5 M^-1 in assay [3] (Na+ 100 mM, 1 μM complex). In addition, the shift in melting temperature (ΔTm) – broadly, the shift of the melting midpoint relative to a reference – in assay [4] turned out to be 2.8 °C; in assay [5], 28.3 °C.

`[Cl-].[Pt+2].[c-]1cc(OCCN2CCOCC2)ccc1-c1cccc(-c2ccccn2)n1`: the Ka in assay [1] is given as 3.55 ± 0.92 x 10^5 M^-1; in assay [2], 13.68 ± 1.56 x 10^5 M^-1; in assay [3] (K+ 100 mM), 2.95 ± 0.34 x 10^5 M^-1; in assay [3] (Na+ 100 mM) it was 1.47 ± 0.08 x 10^5 M^-1.
